Measured values as given in patent publication US11873298B2, “Compounds and uses thereof” (JANSSEN PHARMACEUTICA NV, priority 2017, dated 2024).

How the values were obtained:
[1] = tested on: U2OS cells transiently overexpressing alpha-synuclein; assay: U2OS transient overexpression induced cytotoxicity assay (ATP content, CellTiter-Glow); assay type: cell-based, human; conditions: 72 hours post transfection
Method: U2OS (Sigma-Aldrich), a human bone osteosarcoma epithelial cell line, is regularly maintained in McCoy's 5A medium (ATCC) supplemented with 10% FBS (ThermoFisher) between passage 11-21 and sub -cultured twice a week for the assay.
On the day of experiment, cells are about 80% confluence and trypsinized using 0.25% trypsin-EDTA (ThermoFisher Inc.) for 5 minutes at 37 c. Based on a ratio of 2 ug DNA/2e5 cells, required cells are spun down at 800 rpm for 5 minutes at room temperature. Cells are then re-suspended in SE solution (Lonza Inc.) at a density of 2e4 cells/μl. Nucleofection is performed using 4D-Nucleofector™ System (Lonza Inc.) under program code CM130. Cells are allowed to recover in the cuvette at room temperature for 10-15 minutes before further handling. Pre-warmed medium is added and cells suspension is thoroughly but gently mixed before plating. Cells are seeded at 2e4 cells/100 µl/well into 96 well PLD-coated white plate (Corning) using customized Viaflow program (Integra Biosciences). Serial dilution of drugs is carried out in DMSO. Drug solution is prepared at 6× fold, 20 ul of which is added to cells 4 hours after transfection. The final DMSO concentration is 0.3%. Microclimate lid (Labcyte) is strongly recommended to reduce evaporation and variation. Seventy-two hours post transfection, cells are lysed using CellTiter-Glow (Promega) and ATP content is determined using a luminescence plate reader (Perkin Elmer).
% Maximum fold rescue at each concentration is calculated as follows: […]
FK506 (tacrolimus), a macrolide calcineurin inhibitor, is used as reference compound in the assay.
% Rescue (normalized by max fold rescue of FK506)=(% Fold^αSyn drug-100)*100/(% Max fold^αSyn FK506-100).

Ole1 = target: T1, Ole1 (Saccharomyces cerevisiae, UniProt P21147); assay: Growth inhibition of yeast strain expressing Ole1 as sole desaturase; assay type: cell-based; conditions: yeast strain expressing Ole1 as sole desaturase
T1 construct: expressed in transfected cells; host or cells: S. cerevisiae ole1Δ strain (W303 pdr1Δ pdr3Δ background), plasmid pRS316 with TDH3 promoter and CYC1 terminator
T1 sequence (P21147 1-510): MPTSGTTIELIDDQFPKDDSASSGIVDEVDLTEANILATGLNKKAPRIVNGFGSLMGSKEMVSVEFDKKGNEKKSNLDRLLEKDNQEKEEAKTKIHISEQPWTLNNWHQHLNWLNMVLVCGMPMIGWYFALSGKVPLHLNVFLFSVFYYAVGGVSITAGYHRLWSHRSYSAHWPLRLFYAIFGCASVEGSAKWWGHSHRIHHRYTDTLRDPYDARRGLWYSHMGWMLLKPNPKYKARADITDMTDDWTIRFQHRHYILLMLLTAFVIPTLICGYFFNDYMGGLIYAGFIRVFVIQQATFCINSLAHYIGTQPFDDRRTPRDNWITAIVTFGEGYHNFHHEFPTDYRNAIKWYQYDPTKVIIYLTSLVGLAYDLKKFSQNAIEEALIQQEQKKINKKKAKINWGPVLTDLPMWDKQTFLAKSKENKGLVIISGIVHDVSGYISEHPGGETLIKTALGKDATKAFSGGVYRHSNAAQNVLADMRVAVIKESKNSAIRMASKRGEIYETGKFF
Outline: (§1)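 ole1Δ yeast (W303 pdr1Δ pdr3Δ background) carrying plasmid-borne Ole1, SCD1 or SCD5, grown in uracil-free media; cultures pre-grown in raffinose, seeded at 2× density 0.02 in galactose media with compound. Growth read as OD600 after 24 h at 30° C. for Ole1, 40 h for SCD1/SCD5.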

SCD1 = target: T2, SCD1 (Homo sapiens, UniProt O00767); assay: Growth inhibition of humanized yeast strain expressing SCD1 as sole desaturase; assay type: cell-based; conditions: humanized yeast strain expressing SCD1
T2 construct: host or cells: S. cerevisiae ole1Δ strain (W303 pdr1Δ pdr3Δ background), plasmid pRS316 with TDH3 promoter and CYC1 terminator
T2 sequence (O00767 1-359): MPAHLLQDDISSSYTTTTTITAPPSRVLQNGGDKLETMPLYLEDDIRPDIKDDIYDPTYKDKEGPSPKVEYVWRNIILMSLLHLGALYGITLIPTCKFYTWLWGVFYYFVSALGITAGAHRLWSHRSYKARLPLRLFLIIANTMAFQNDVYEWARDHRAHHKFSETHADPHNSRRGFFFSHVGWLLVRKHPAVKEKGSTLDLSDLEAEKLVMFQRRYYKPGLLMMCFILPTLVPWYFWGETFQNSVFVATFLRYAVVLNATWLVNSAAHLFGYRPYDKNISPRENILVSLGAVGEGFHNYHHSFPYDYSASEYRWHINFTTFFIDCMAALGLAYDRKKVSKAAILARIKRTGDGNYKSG
Outline: as §1

[2] = tested on: yeast strains expressing the human α-synuclein; assay: Yeast α-synuclein toxicity rescue assay (OD600 growth); conditions: 40 h; for EC50: read-out: α-Syn EC50; for Emax: read-out: α-Syn Emax
Excerpt: The induced expression of α-synuclein and ApoE4 confers cytotoxicity, thus enabling the identification of compounds that can restore cell viability. This instantaneous/synchronous induction of α-synuclein and ApoE4 can be achieved due to the following expression control. In glucose-containing media, gene expression from the GAL1 promoter is ‘off’ and actively repressed by additional epigenetic factors. In raffinose, expression is ‘off’, but the promoter not actively repressed. Upon transition to galactose-containing media, the promoter is instantaneously turned ‘on’ to achieve robust and synchronous induction of α-synuclein or ApoE4 expression. This highly regulated induction provides a robust window for the determination of both efficacy (amplitude of protective effect) and potency (concentration of protective effect) of cytoprotective compounds.
Re-suspended compound stocks were subsequently arrayed into 384 well compound plates using automated pipetting. All other wells not receiving stock compound were filled with 10 μL of 100% DMSO using an automated plate filler (Multidrop Combi). An 11 point, 2-fold serial dilution was then performed using the robotic platform. Compound assay plates were covered with foil and stored at −20° C. until use.
Each strain was handled according to standard protocols and cultured in media composed of CSM (complete synthetic media), YNB (yeast nitrogenous base), and a 2% (w/v) carbon source (either glucose, raffinose, or galactose).
In a standard yeast assay, a single-use aliquot of cells was thawed on ice and diluted into CSM/glucose (5 mL). Cultures were grown for 8 hours at 30° C. This pre-growth enables the yeast to exit the thaw and begin to grow without expressing aSyn or ApoE4. After 8 hours, cell density (OD600) was determined and cultures diluted to an OD600 of 0.01 in CSM/raffinose for an overnight culture phase at 30° C. During this period, the active glucose repression of the GAL1 promoter was relieved; however, expression of the α-Syn/ApoE4 genes were not yet induced. After ˜16 hours of growth, cultures attain an OD600 of 0.4-0.8 and were ready to apply to assay plates containing compound.
Compound profiling assays were executed in clear-bottom 384 well plates. First, compound plates were thawed at room temperature for 45′, centrifuged at 1,000×g for 1 minute, and the foil removed. Clear 384 well assay plates were then filled with 15 μL of CSM/galactose. […] The pin tool was washed iteratively with both 50% DMSO and 100% ethanol between each assay plate. After delivering compound to each assay plate, the overnight CSM/raffinose aSyn or ApoE4 cultures were added at a 2X cell density (0.04 for aSyn and 0.08 for ApoE4) in CSM/galactose to achieve a final assay OD600 of 0.02 and 0.04 for aSyn and ApoE, respectively. The cultures (15 μL per well) were then dispensed to the compound -containing 384 well assay plates using an automated plate filler. Plates were incubated in a humidified 30° C. incubator for 40 or 24 hours for aSyn and ApoE4, respectively. The ODsoo of each assay plate was then read with a microplate reader (e.g., Perkin Elmer Envision).
The efficacy and potency of compounds were calculated according to the following. Raw data (OD600 values) were first background corrected to account for OD600 contributed by the plate and media itself. The efficacy (percent above DMSO, herein referred to as “Emax”) was calculated according to the equation: (Experimental well−DMSO control well)/(DMSO control well)*100. […] Normalized dose-response data was fit with a logistic regression curve using Spotfire (TIBCO), or similar curve-fitting software package. EC50 values were then reported along with EMax to provide both efficacy and potency measures for each analog and enable further compound design.

SCD5 = target: T3, SCD5 (Homo sapiens, UniProt Q86SK9); assay: Growth inhibition of humanized yeast strain expressing SCD5 as sole desaturase; assay type: cell-based; conditions: humanized yeast strain expressing SCD5
T3 construct: host or cells: S. cerevisiae ole1Δ strain (W303 pdr1Δ pdr3Δ background), plasmid pRS316 with TDH3 promoter and CYC1 terminator
T3 sequence (Q86SK9 1-330): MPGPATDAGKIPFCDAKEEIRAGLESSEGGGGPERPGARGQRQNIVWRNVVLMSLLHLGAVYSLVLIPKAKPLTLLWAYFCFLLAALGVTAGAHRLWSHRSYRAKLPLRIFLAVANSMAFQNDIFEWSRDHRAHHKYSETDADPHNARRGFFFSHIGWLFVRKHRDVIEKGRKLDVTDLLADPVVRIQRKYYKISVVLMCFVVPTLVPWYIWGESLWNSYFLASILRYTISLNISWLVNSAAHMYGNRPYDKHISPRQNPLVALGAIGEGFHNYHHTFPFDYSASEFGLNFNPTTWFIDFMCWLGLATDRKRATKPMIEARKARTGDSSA
Outline: as §1

[3] = tested on: yeast strains expressing the human ApoE4; assay: Yeast ApoE4 toxicity rescue assay (OD600 growth); conditions: 24 h; for EC50: read-out: ApoE4 EC50; for Emax: read-out: ApoE4 Emax

`Cc1nn(C)c2cc(-c3noc(C4CCN(C(=O)CNC(=O)c5ccccc5)CC4)n3)ccc12` [Example 40, N-(2-(4-(3-(1,3-dimethyl-1H-indazol-6-yl)-1,2,4-oxadiazol-5-yl)piperidin-1-yl)-2-oxoethyl)benzamide] was tested, and the “% Rescue (normalized by FK506 max rescue)” value ([1]; 0.01 μM) was 107%, the “% Rescue (normalized by FK506 max rescue)” value ([1]; 0.1 μM) was 137% and the “% Rescue (normalized by FK506 max rescue)” value ([1]; 0.3 μM) was 105%. For the same compound, the “% Rescue (normalized by FK506 max rescue)” value ([1]; 1 μM) was 77%.
With `CCOc1ccc(-c2noc(C3CCN(C(=O)CNC(=O)c4ccccc4)CC3)n2)cc1OC` [Example 155, N-(2-(4-(3-(4-ethoxy-3-methoxyphenyl)-1,2,4-oxadiazol-5-yl)piperidin-1-yl)-2-oxoethyl)benzamide] the “% Rescue (normalized by FK506 max rescue)” value ([1]; 0.01 μM) was −23%, the “% Rescue (normalized by FK506 max rescue)” value ([1]; 0.1 μM) was 83% and the “% Rescue (normalized by FK506 max rescue)” value ([1]; 0.3 μM) was 44%. For the same compound, the “% Rescue (normalized by FK506 max rescue)” value ([1]; 1 μM) was 10%.
Work on `O=C(NCC(=O)N1CCC(c2nc(-c3ccc(Cl)c(Cl)c3)no2)CC1)c1ccccc1` [compound 23] yielded an IC50 (Ole1) greater than 45 µM, an IC50 (SCD1) of 33.6 µM and an EC50 [2] of 7.68 µM. The Emax [2] was 182%, the IC50 (SCD5) was greater than 45 µM and the EC50 [3] was 6.51 µM. For the same compound, the Emax [3] was 466%.
`O=C(NCC(=O)N1CCC(c2nc(-c3ccc(F)c(F)c3)no2)CC1)c1ccccc1` [compound 24] showed an IC50 (Ole1) greater than 45 µM, an IC50 (SCD1) greater than 45 µM and an EC50 [2] of 5.13 µM. For the same compound, the Emax [2] was 76%, the IC50 (SCD5) was 30 µM and the EC50 [3] was 13.3 µM. For the same compound, the Emax [3] was 301%.
Compound `COc1ccc(-c2noc(C3CCN(C(=O)CNC(=O)c4ccccc4Cl)CC3)n2)cc1OC` [compound 25] has an IC50 (Ole1) greater than 45 µM, an IC50 (SCD1) greater than 45 µM and an EC50 [2] of 0.751 µM. For the same compound, the Emax [2] was 619%, the IC50 (SCD5) was 39.4 µM and the EC50 [3] was 1.85 µM. The Emax [3] was 889%.
`COc1ccc(-c2noc(C3CCN(C(=O)CNC(=O)c4cccc(Cl)c4)CC3)n2)cc1OC` [compound 26] showed an IC50 (Ole1) greater than 45 µM, an IC50 (SCD1) greater than 45 µM and an EC50 [2] of 0.042 µM. For the same compound, the Emax [2] was 608%, the IC50 (SCD5) was 24.5 µM and the EC50 [3] was 0.377 µM. The Emax [3] was 811%.
In the case of `COc1ccc(-c2noc(C3CCN(C(=O)CNC(=O)c4ccc(Cl)cc4)CC3)n2)cc1OC` [compound 27], the IC50 (Ole1) is reported as greater than 45 µM, the IC50 (SCD1) is reported as greater than 45 µM and the EC50 [2] is reported as 0.059 µM. The Emax [2] was 589%, the IC50 (SCD5) was greater than 45 µM and the EC50 [3] was 0.39 µM. The Emax [3] was 761%.
Compound `O=C(NCC(=O)N1CCC(c2nc(-c3ccc4ccccc4n3)no2)CC1)c1ccccc1` [compound 79] has an IC50 (Ole1) greater than 45 µM, an IC50 (SCD1) greater than 45 µM and an EC50 [2] of 9.91 µM. The Emax [2] was 627%, the IC50 (SCD5) was greater than 45 µM and the EC50 [3] was 18.8 µM. For the same compound, the Emax [3] was 631%.
For `CCOc1ccc(-c2noc(C3CCN(C(=O)NC4CC4c4ccccc4)CC3)n2)cc1OC` (stereo not shown) [compound 80], the IC50 (Ole1) was greater than 45 µM, the IC50 (SCD1) was greater than 45 µM and the EC50 [2] was 3.32 µM. For the same compound, the Emax [2] was 188%, the IC50 (SCD5) was greater than 45 µM and the EC50 [3] was 6.01 µM. For the same compound, the Emax [3] was 262%.
For `CCOc1ccc(-c2noc(C3CCN(C(=O)NCCc4ccccc4)CC3)n2)cc1OC` [compound 83], the IC50 (Ole1) was greater than 45 µM, the IC50 (SCD1) was greater than 45 µM and the EC50 [2] was 9.31 µM. It also gave an Emax [2] of 151%, an IC50 (SCD5) greater than 45 µM and an Emax [3] of 567%.
`CCOc1ccc(-c2noc(C3CCN(C(=O)[C@H]4CC(=O)N(c5ccccc5)C4)CC3)n2)cc1OC` [compound 85] gave an IC50 (Ole1) greater than 45 µM, an IC50 (SCD1) greater than 45 µM and an EC50 [2] of 12.6 µM. It also gave an Emax [2] of 486%, an IC50 (SCD5) greater than 45 µM and an EC50 [3] of 17 µM. It also gave an Emax [3] of 602%.
`CCOc1ccc(-c2noc(C3CCN(C(=O)[C@@H]4CC(=O)N(c5ccccc5)C4)CC3)n2)cc1OC` [compound 86] gave an IC50 (Ole1) greater than 45 µM, an IC50 (SCD1) greater than 45 µM and an EC50 [2] of 0.018 µM. It also gave an Emax [2] of 772%, an IC50 (SCD5) of 33.3 µM and an EC50 [3] of 0.064 µM. For the same compound, the Emax [3] was 633%.
With `Cc1nn(C)c2cc(-c3noc(N4CCN(C(=O)C5CC(=O)N(c6ccccc6)C5)CC4)n3)ccc12` (stereo not shown) [compound 96] the IC50 (Ole1) was greater than 45 µM, the IC50 (SCD1) was greater than 45 µM and the EC50 [2] was 0.026 µM. It also gave an Emax [2] of 343%, an IC50 (SCD5) greater than 45 µM and an EC50 [3] of 0.228 µM. It also gave an Emax [3] of 840%.
`CCOc1ccc(-c2noc(C3CCN(C(=O)CNC(=O)c4ccccc4)CC3)n2)cc1F` [compound 97] gave an IC50 (Ole1) greater than 45 µM, an IC50 (SCD1) greater than 45 µM and an EC50 [2] of 0.707 µM. It also gave an Emax [2] of 132%, an IC50 (SCD5) of 30 µM and an EC50 [3] of 3.88 µM. For the same compound, the Emax [3] was 704%.
For `CCOc1ccc(-c2noc(C3CCN(C(=O)c4cnc(-c5ccccc5)[nH]4)CC3)n2)cc1OC` [compound 98], the IC50 (Ole1) was greater than 45 µM, the IC50 (SCD1) was greater than 45 µM and the EC50 [2] was 8.01 µM. The Emax [2] was 386%, the IC50 (SCD5) was 41.1 µM and the EC50 [3] was 9.75 µM. It also gave an Emax [3] of 650%.
For `CCOc1ccc(-c2noc(C3CCN(C(=O)CNC(=O)c4ccccc4)CC3)n2)cc1Br` [compound 99], the IC50 (Ole1) was greater than 45 µM, the IC50 (SCD1) was greater than 45 µM and the EC50 [2] was 1.03 µM. It also gave an Emax [2] of 209%, an IC50 (SCD5) greater than 45 µM and an EC50 [3] of 2.75 µM. It also gave an Emax [3] of 663%.
`CCOc1ccc(-c2noc(N3CCC(C(=O)N4CCCC(c5ccccc5)C4)CC3)n2)cc1OC` (stereo not shown) [compound 100] gave an IC50 (Ole1) greater than 45 µM, an IC50 (SCD1) of 32.8 µM and an EC50 [2] of 1.19 µM. For the same compound, the Emax [2] was 385%, the IC50 (SCD5) was greater than 45 µM and the EC50 [3] was 2.11 µM. The Emax [3] was 651%.
